The supplement of paper PMC10307832

Experiments:
Test in all cases: relative viability (nuclei count vs DMSO), 5 days (fraction); higher = more cells survive
Seliciclib + Navitoclax = compound: CC[C@H](CO)Nc1nc(NCc2ccccc2)c2ncn(C(C)C)c2n1 [Seliciclib] + CC1(C)CCC(c2ccc(Cl)cc2)=C(CN2CCN(c3ccc(C(=O)NS(=O)(=O)c4ccc(N[C@H](CCN5CCOCC5)CSc5ccccc5)c(S(=O)(=O)C(F)(F)F)c4)cc3)CC2)C1 [Navitoclax] (partner 0.5 µM)
Outline: (§1)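 Each reported value is a median over duplicate plates. It expresses relative viability: treated-well nuclei count divided by vehicle-well nuclei count. Lung cancer cell lines in 1536-well plates were dosed by pin tool a day after seeding, alone with one drug or with a fixed anchor-drug dose plus five library-drug doses (not always all listed) in √10 steps, and nuclei were counted after 5 days.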

Seliciclib + Crizotinib = compound: CC[C@H](CO)Nc1nc(NCc2ccccc2)c2ncn(C(C)C)c2n1 [Seliciclib] + C[C@@H](Oc1cc(-c2cnn(C3CCNCC3)c2)cnc1N)c1c(Cl)ccc(F)c1Cl [Crizotinib] (partner 1 µM)
Outline: as §1

Seliciclib + Dasatinib = compound: CC[C@H](CO)Nc1nc(NCc2ccccc2)c2ncn(C(C)C)c2n1 [Seliciclib] + Cc1nc(Nc2ncc(C(=O)Nc3c(C)cccc3Cl)s2)cc(N2CCN(CCO)CC2)n1 [Dasatinib] (partner 0.075 µM)
Outline: as §1

Seliciclib + Vorinostat = compound: CC[C@H](CO)Nc1nc(NCc2ccccc2)c2ncn(C(C)C)c2n1 [Seliciclib] + O=C(CCCCCCC(=O)Nc1ccccc1)NO [Vorinostat] (partner 1 µM)
Outline: as §1

| Cell Line | relative viability (Seliciclib + Navitoclax; first compound 0.08 µM) | relative viability (Seliciclib + Navitoclax; first compound 0.253 µM) | relative viability (Seliciclib + Navitoclax; first compound 0.8 µM) | relative viability (Seliciclib + Navitoclax; first compound 2.53 µM) | relative viability (Seliciclib + Navitoclax; first compound 8 µM) | relative viability (Seliciclib + Crizotinib; first compound 0.08 µM) | relative viability (Seliciclib + Crizotinib; first compound 0.253 µM) | relative viability (Seliciclib + Crizotinib; first compound 0.8 µM) | relative viability (Seliciclib + Crizotinib; first compound 2.53 µM) | relative viability (Seliciclib + Crizotinib; first compound 8 µM) | relative viability (Seliciclib + Dasatinib; first compound 0.08 µM) | relative viability (Seliciclib + Dasatinib; first compound 0.253 µM) | relative viability (Seliciclib + Dasatinib; first compound 0.8 µM) | relative viability (Seliciclib + Dasatinib; first compound 2.53 µM) | relative viability (Seliciclib + Dasatinib; first compound 8 µM) | relative viability (Seliciclib + Vorinostat; first compound 0.08 µM) | relative viability (Seliciclib + Vorinostat; first compound 0.253 µM) | relative viability (Seliciclib + Vorinostat; first compound 0.8 µM) | relative viability (Seliciclib + Vorinostat; first compound 2.53 µM) | relative viability (Seliciclib + Vorinostat; first compound 8 µM) |
| --- | --- | --- | --- | --- | --- | --- | --- | --- | --- | --- | --- | --- | --- | --- | --- | --- | --- | --- | --- | --- |
| H3255 | 0.656 | 0.558 | 0.512 | 0.436 | 0.46 | 0.787 | 0.892 | 1.01 | 0.965 | 0.727 | 0.341 | 0.447 | 0.335 | 0.279 | 0.324 | 0.854 | 0.825 | 0.855 | 0.691 | 0.755 |
| EPLC-272H | 1.24 | 0.987 | 1.12 | 1.28 | 1.12 | 0.88 | 0.729 | 0.746 | 0.903 | 0.636 | 0.329 | 0.298 | 0.408 | 0.183 | 0.266 | 0.43 | 0.506 | 0.476 | 0.311 | 0.405 |
| PC-3 [JPC-3] | 0.829 | 0.84 | 0.77 | 0.786 | 0.751 | 0.998 | 0.994 | 0.95 | 0.921 | 0.861 | 1.04 | 1 | 0.982 | 0.936 | 0.946 | 0.796 | 0.957 | 0.876 | 0.601 | 0.633 |
| EKVX | 0.951 | 1.1 | 0.865 | 0.777 | 0.702 | 0.743 | 1.14 | 0.877 | 1.11 | 0.817 | 0.53 | 0.55 | 0.573 | 0.47 | 0.493 | 0.627 | 0.857 | 0.553 | 0.633 | 0.593 |
| ChaGo-K-1 | 1.03 | 0.567 | 0.949 | 0.755 | 0.431 | 1.14 | 1.01 | 1.12 | 1.12 | 0.488 | 0.588 | 0.637 | 0.661 | 0.478 | 0.495 | 0.758 | 0.628 | 0.743 | 0.654 | 0.433 |
| NCI-H23 | 0.813 | 0.677 | 0.842 | 0.624 | 0.565 | 0.454 | 0.427 | 0.432 | 0.42 | 0.48 | 0.855 | 0.785 | 0.756 | 0.296 | 0.643 | 0.648 | 0.554 | 0.618 | 0.367 | 0.499 |
| EMC-BAC-2 | 1.13 | 1.11 | 1.1 | 1.27 | 1.09 | 0.735 | 0.744 | 0.824 | 0.728 | 0.534 | 0.305 | 0.288 | 0.399 | 0.218 | 0.277 | 0.454 | 0.414 | 0.547 | 0.259 | 0.307 |
| LOU-NH91 | 0.591 | 0.61 | 0.591 | 0.695 | 0.482 | 0.721 | 0.743 | 0.678 | 0.673 | 0.685 | 0.493 | 0.515 | 0.535 | 0.413 | 0.427 |  | 0.863 | 0.803 | 0.778 | 0.613 |
